Assays:
[1] = target: T1, alpha isoform of human glucocorticoid receptor (Homo sapiens, UniProt P04150); assay: Assay of binding to human glucocorticoid receptor ([3H]dexamethasone displacement in transfected COS-1 cells); settings: 24 nM [3H]dexamethazone, COS-1 cells transfected with human GR alpha, 90 minutes at 37° C.
T1 construct: expressed in transfected cells; host or cells: COS-1 cells, transient transfection with pcDNA3.1 Hygro(+) carrying the GR alpha cDNA
T1 sequence (P04150 1-777): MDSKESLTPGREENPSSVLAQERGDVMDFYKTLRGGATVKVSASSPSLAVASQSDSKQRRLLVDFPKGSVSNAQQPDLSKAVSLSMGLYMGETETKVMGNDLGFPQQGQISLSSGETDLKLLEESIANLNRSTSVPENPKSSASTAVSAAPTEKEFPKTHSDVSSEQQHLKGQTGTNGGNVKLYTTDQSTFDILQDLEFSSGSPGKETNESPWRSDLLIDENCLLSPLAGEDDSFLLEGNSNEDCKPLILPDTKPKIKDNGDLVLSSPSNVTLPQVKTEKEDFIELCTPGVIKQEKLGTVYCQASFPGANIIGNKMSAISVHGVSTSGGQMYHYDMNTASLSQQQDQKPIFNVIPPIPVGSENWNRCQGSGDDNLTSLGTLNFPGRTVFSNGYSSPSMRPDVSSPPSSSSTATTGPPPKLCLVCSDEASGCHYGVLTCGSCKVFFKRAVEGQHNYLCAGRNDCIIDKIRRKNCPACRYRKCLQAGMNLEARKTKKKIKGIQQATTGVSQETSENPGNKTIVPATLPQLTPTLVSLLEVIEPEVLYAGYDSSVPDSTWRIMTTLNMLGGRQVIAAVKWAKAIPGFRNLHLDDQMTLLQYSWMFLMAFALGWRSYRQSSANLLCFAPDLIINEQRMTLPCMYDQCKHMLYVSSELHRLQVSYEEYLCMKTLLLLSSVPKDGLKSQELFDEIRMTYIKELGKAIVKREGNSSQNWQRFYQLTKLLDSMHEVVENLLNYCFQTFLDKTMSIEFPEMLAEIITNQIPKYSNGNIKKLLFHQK
Experimental: Assay of Binding to Human Glucocorticoid Receptor The gene for the alpha isoform of human glucocorticoid receptor was cloned by reverse polymerase chain reaction. The total RN A was isolated from human peripheral blood lymphocytes according to the instructions of the manufacturer (Qiagen), transcripted into cDNA with AMV reverse transcriptase (Roche) and the gene was multiplied by specific primers 1) [NT] ID NO:1] and 2) [NT] NO:1]. […] The medium was removed and 1 μg of DNA, 7 μl of PLUS reagent and 2 μl of Lipofectamin (Life Technologies) in 500 μl of DMEM were added per well. The cells were incubated at 37° C. in an atmosphere with 5% CO2 and after 5 hours the same volume of 20% FBS/DMEM was added. After 24 hours, the medium was completely changed. 48 hours after transfection, the test compounds in different concentrations and 24 nM [^3H]dexamethazone (Pharmacia) in DMEM medium were added. The cells were incubated for 90 minutes at 37° C. in an atmosphere with 5% CO2, washed three times with PBS buffer (Sigma) cooled to 4° C. (pH=7.4), and then lysed in Tris buffer (pH=8.0) (Sigma) with 0.2% of SDS (Sigma). After the addition of UltimaGold XR (Packard) scintillation liquid, the residual radioactivity was read in a Tricarb (Packard) β-scintillation counter.

Male Balb/C mice = assay: Model of lung eosinophilia in mice; type: in vivo; settings: OVA-sensitised and challenged mice, daily i.n. or i.p.; t-test, p<0.05
Experimental: Model of Lung Eosinophilia in Mice Male Balb/C mice with a body weight of 20-25 g were randomly divided into groups, and sensitised by an i.p. injection of ovalbumin (OVA, Sigma) on day zero and day fourteen. On the twentieth day, the mice were subjected to a challenge test by i.n. (intranasal) application of OVA (positive control or test groups) or PBS (negative control). 48 hours after i.n. application of OVA, the animals were anaesthetized and the lungs were rinsed with 1 mL of PBS. The cells were separated on Cytospin 3 cytocentrifuge (Shandon). The cells were stained in Diff-Quick (Dade) and the percentage of eosinophils was determined by differential counting of at least 100 cells. Fluticasone (GlaxoWellcome) and beclomethasone ([…].) were used as standard substances, with positive and negative control. The compounds were administered daily i.n. or i.p. in different doses 2 days before the challenge test and up to the completion of the test.

Male Wistar rats = assay: Cold stress model; type: in vivo; settings: standard 1 mg/kg once daily over three days, cold stress at 4° C. for 1 hour; P<0.05, T-test
Experimental: Male Wistar rats with a body weight of 200-250 g (our own breeding) were randomly divided into groups. The carrier (lactose) in the volume of 0.5 mL/100 g s.c. was applied to the negative and positive control group. Test substances and the standard were applied once daily over three days in the dose of 2 mg/kg in the volume of 0.5 mL/100 g of body weight. The standard was applied in the dose of 1 mg/kg, in the volume of 0.5 mL/100 g of body weight.
On day three, 2 hours after the last treatment, all animals, except for the negative control group, were subjected to cold stress at 4° C. for 1 hour. After the stress, the animals were anaesthetized with thiopental (Pliva d.d.) and blood from all animals was drawn on K2 EDTA into test tubes. Plasma samples were frozen at −70° C. Corticosterone levels were determined by fluorimetric method according to Silber. Thymuses were removed from animals and weighed, and their weights were compared with the negative and positive control.

SMILES	affinity for glucocorticoid receptor (displacement of radioactive dexamethasone) [1]	number of eosinophils in the lung rinse with respect to positive control (Male Balb/C mice)	corticosterone plasma levels (Male Wistar rats)	weight of the thymus (Male Wistar rats)
CC[C@H]1OC(=O)[C@H](C)[C@@H](O)[C@H](C)[C@@H](O)[C@](C)(O)C[C@@H](C)CN(CCCNC(=O)[C@H]2[C@H](C)CC3C4CCC5=CC(=O)C=C[C@]5(C)[C@@]4(F)[C@@H](O)C[C@@]32C)[C@H](C)[C@@H](O)[C@]1(C)O (stereo partly drawn) [Compound 2]	have the affinity for glucocorticoid receptor	statistically significantly reduced	–	–
CCCC1O[C@@H]2C[C@H]3[C@@H]4CCC5=CC(=O)C=C[C@]5(C)[C@H]4[C@@H](O)C[C@]3(C)[C@]2(C(=O)CO)O1 (stereo partly drawn) [budesonide]	–	–	statistically significantly reduced	reduced the weight of the thymus
C[C@@H]1C[C@H]2[C@@H]3C[C@H](F)C4=CC(=O)C=C[C@]4(C)[C@@]3(F)[C@@H](O)C[C@]2(C)[C@@]1(O)C(=O)SCF [fluticasone]	–	–	statistically significantly reduced	reduced the weight of the thymus

Source: patent US7579334B2, “Compounds with anti-inflammatory activity” (GlaxoSmithKline Istrazivacki Centar Zagreb, priority 2003, dated 2009)
